# Experimental data as given in paper PMC3958853, “Characterization and Antioxidant Properties of Six Algerian Propolis Extracts: Ethyl Acetate Extracts Inhibit Myeloperoxidase Activity” (International Journal of Molecular Sciences, 2014).
# Values joined by “and” are separate entries in the source; they are usually repeats but may differ in a detail not shown here. Identical values can stand only once.
# Target: T1, recombinant MPO (Homo sapiens, UniProt P05164)
# T1 construct: made in house
# T1 sequence (P05164 49-745): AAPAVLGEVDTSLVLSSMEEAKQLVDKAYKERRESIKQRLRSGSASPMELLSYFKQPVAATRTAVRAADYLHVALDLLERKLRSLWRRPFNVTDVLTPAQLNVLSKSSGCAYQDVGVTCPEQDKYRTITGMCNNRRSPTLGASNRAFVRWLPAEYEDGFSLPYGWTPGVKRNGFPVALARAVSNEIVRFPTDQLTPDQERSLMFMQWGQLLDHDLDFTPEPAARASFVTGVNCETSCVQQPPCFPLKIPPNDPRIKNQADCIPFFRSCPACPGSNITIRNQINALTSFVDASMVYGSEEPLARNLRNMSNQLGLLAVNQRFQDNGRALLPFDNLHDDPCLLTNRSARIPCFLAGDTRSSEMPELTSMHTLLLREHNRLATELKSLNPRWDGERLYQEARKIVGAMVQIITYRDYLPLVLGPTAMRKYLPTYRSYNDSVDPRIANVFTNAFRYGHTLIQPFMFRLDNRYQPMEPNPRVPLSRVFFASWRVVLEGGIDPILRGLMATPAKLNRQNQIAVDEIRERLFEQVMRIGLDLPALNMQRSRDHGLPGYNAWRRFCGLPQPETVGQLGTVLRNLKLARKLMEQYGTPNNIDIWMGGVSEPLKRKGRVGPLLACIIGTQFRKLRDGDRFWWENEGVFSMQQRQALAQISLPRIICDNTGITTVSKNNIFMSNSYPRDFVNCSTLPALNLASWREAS
# Assay: not given
# Details: stated among literature reports, no reference given; cited from earlier work
row,SMILES,IC50 [µM]
1,O=c1c(O)c(-c2ccc(O)c(O)c2)oc2cc(O)cc(O)c12 [Quercetin],~5

# Target: T1, recombinant MPO
# Assay: Myeloperoxidase inhibition assay (taurine chloramine)
# Assay type: biochemical
# Details: pure compounds, read-out: IC50 (μM) ± SD for MPO
# Method: The recombinant MPO was produced as previously described Moguilevsky et al. and each batch solution was characterized by its protein concentration (mg/mL), its activity (U/mL), and its specific activity (U/mg). The chlorination activity was determined according to Hewson and Hager, (1979). Human plasma served for the isolation of LDL by ultracentrifugation according to Havel et al. (1955). Before oxidation, the LDL fraction (1.019 < d < 1.067 g/mL) was desalted by two consecutive passages through PD10 gel-filtration columns (Amersham Biosciences, Hoevelaken, The Netherlands) using PBS buffer. The different steps were carried out in the dark, and the protein concentration was measured by the Lowry assay for both MPO and LDL [57].
# The assay was based on the production of taurine chloramine by the MPO/H2O2/Cl^− system which can be determined by means of 5-thio-2-nitrobenzoic acid (TNB) in the presence of a selected inhibitor at defined concentration. The reaction mixture contained the following reagents in a final volume of 200 μL:pH 7.4 phosphate buffer (10 mM PO4^3−/300 mM NaCl), taurine (15 mM), extraction solutions of propolis, and the fixed amount of the recombinant MPO (6 μL of MPO batch solution diluted 2.5 times, 40 nM). When necessary, the volume was adjusted with water. This mixture was incubated at 37 °C and the reaction initiated with 10.0 μL of H2O2 (100 μM). After 5 min, the reaction was stopped by the addition of 10 μL of catalase (8 U/μL). To determine the amount of taurine chloramines produced, 50 μL of 1.35 mM solution of TNB were added and the volume adjusted to 300 μL with water. Then, the absorbance of the solutions was measured at 412 nm with a microplate reader and the curve of the absorbance as a function of the inhibitor concentration was plotted. To remove the influence of HOCl scavenging carried out by the extracts, the same procedure of MPO inhibition assay was done but with addition of 6 μL of HOCl (60 μM) instead of the solution of MPO and H2O2.
row,SMILES,IC50
1,O=c1c(-c2ccc(O)cc2)coc2cc(O)cc(O)c12 [Genistein],> 10 µM
2,O=c1c(O)c(-c2ccccc2)oc2cc(O)cc(O)c12 [Galangin],> 10 µM
3,O=C(O)/C=C/c1ccc(O)c(O)c1 [Caffeic acid],> 10 µM

# Next, values leading:
row,IC50,SMILES
1,9 ± 4 µM,O=C(O)/C=C/c1ccccc1 [Cinnamic acid]
2,9 ± 2 µM,COc1ccc(-c2cc(=O)c3c(O)cc(O)cc3o2)cc1 [Acacetin]
3,8 ± 2 µM,O=c1cc(-c2ccccc2)oc2cc(O)cc(O)c12 [Chrysin]
4,> 10 µM,CC(C)c1c(O)ccc2c1CC[C@H]1C(C)(C)CCC[C@]21C [Totarol]
5,4.1 µM and 4 µM,O=c1c(O)c(-c2ccc(O)cc2)oc2cc(O)cc(O)c12 [Kaempferol]
6,6 ± 3 µM,COc1cc(/C=C/C(=O)O)ccc1O [Ferulic acid]
